Reference: patent US10913753B2, “Thienopyridine carboxamides as ubiquitin-specific protease inhibitors” (FORMA Therapeutics, Inc., priority 2016, dated 2021)

Legend:
USP28 = USP28 (Homo sapiens (Human), UniProt Q96RU2); assay: Ubiquitin-Rhodamine 110 Assay for USP28 Activity; assay type: biochemical
Description: The assay was performed in a final volume of 20 μL in assay buffer containing 20 mM Tris-HCl (pH 8.0, (1M Tris-HCl, pH 8.0 solution; Corning 46-031-CM)), 2 mM CaCl2 (1M Calcium Chloride solution; Sigma #21114) 2 mM BME (2-Mercaptoethanol; Sigma 63689-25ML -F), 0.01% Prionex (0.22 μM filtered, Sigma #G-0411), and 0.01% Triton X-100. Stock compound solutions were stored at −20° C. as 10 mM in DMSO. Up to 1 month prior to the assay, 2 mM test compounds were pre-dispensed into assay plates (Black, low volume; Corning #3820) and frozen at −20° C. Prestamped assay plates were allowed to come to room temperature on the day of the assay. For the screen, 100 nL of 2 mM was pre-dispensed for a final screening concentration of 10 μM (DMSO(fc)=0.5%). […] Plates were incubated stacked for 90 minutes at room temperature before fluorescence was read on the Envision (Excitation at 485 nm and Emission at 535 nm; Perkin Elmer) or on the PheraSTAR (Excitation at 485 nm and Emission at 535 nm; BMG Labtech).
For follow-up studies, the assay was performed in a final volume of 15 μL in assay buffer containing 20 mM Tris-HCl (pH 8.0, (1M Tris-HCl, pH 8.0 solution; Corning 46-031-CM)), 3 mM BME (2-Mercaptoethanol; Sigma 63689-25ML-F), 0.03% BGG (0.22 μM filtered, Sigma, G7516-25G), and 0.01% Triton X-100 (Sigma, T9284-10L). Nanoliter quantities of either an 8-point or 10-point, 3-fold serial dilution in DMSO was pre-dispensed into assay plates (Perkin Elmer, ProxiPlate-384 F Plus) for a final test concentration of either 25 μM to 11 nM or 25 μM to 1.3 nM, respectively. Enzyme USP28, construct USP28 (USP28-5(1-1077)-TEV-6*His; LifeSensors) concentration and incubation times were optimized for the maximal signal-to -background while maintaining initial velocity conditions at a fixed substrate concentration. The final concentration of the enzyme in the assay was 75 pM. […] 5 μL of 2× enzyme was added to assay plates (pre-stamped with compound) preincubated with USP28 for 30 minutes and then 5 μL of 2× Ub-Rh110 was added to assay plates. Plates were incubated stacked for 20 min at room temperature before 5 μL of stop solution was added (final concentration of 10 mM citric acid (Sigma, 251275-500G)). Fluorescence was read on the Envision (Excitation at 485 nm and Emission at 535 nm; Perkin Elmer) or on the PheraSTAR (Excitation at 485 nm and Emission at 535 nm; BMG Labtech).
(§1) For both the USP28 and USP25 assay formats, data were reported as percent inhibition compared with control wells based on the following equation: % inh=1-((FLU-AveLow)/(AveHigh−AveLow)) where FLU=measured Fluorescence, AveLow=average Fluorescence of no enzyme control (n=16), and AveHigh=average Fluorescence of DMSO control (n=16). IC50 values were determined by curve fitting of the standard 4 parameter logistic fitting algorithm included in the Activity Base software package: IDBS XE Designer Model205. Data is fitted using the Levenburg Marquardt algorithm.

USP25 = USP25 (Homo sapiens (Human), UniProt Q9UHP3); assay: Ubiquitin-Rhodamine 110 Assay for USP25 Activity; assay type: biochemical
Description: The assay was performed in a final volume of 9 μL in assay buffer containing 20 mM Tris-HCl (pH 8.0, (1M Tris-HC1, pH 8.0 solution; Corning 46-031-CM)), 3 mM BME (2-Mercaptoethanol; Sigma 63689-25ML-F), 0.03% BGG (0.22 μM filtered, Sigma, G7516-25G), and 0.01% Triton X-100 (Sigma, T9284-10L). Nanoliter quantities of 10-point, 3-fold serial dilution in DMSO was pre-dispensed into 1536 assay plates (Corning, #3724BC) for a final test concentration of 25 μM to 1.3 nM, top to lowest dose, respectively. Enzyme USP25, construct USP25-His6, (Boston Biochem E-546). Concentration and incubation times were optimized for the maximal signal-to-background while maintaining initial velocity conditions at a fixed substrate concentration. The final concentration of the enzyme in the assay was 75 pM. […] 3 μL of 2× enzyme was added to assay plates (pre-stamped with compound) preincubated with […] for 30 minutes and then 3 μL of 2× Ub-Rh110 was added to assay plates. Plates were incubated for 45 minutes at room temperature before addition of 3 μL of stop solution (final concentration of 10 mM citric acid (Sigma, 251275-500G)). Fluorescence was read on the Envision (Excitation at 485 nm and Emission at 535 nm; Perkin Elmer) or on the PheraSTAR (Excitation at 485 nm and Emission at 535 nm; BMG Labtech).
as §1

Chain of USP25 (Q9UHP3 whole entry): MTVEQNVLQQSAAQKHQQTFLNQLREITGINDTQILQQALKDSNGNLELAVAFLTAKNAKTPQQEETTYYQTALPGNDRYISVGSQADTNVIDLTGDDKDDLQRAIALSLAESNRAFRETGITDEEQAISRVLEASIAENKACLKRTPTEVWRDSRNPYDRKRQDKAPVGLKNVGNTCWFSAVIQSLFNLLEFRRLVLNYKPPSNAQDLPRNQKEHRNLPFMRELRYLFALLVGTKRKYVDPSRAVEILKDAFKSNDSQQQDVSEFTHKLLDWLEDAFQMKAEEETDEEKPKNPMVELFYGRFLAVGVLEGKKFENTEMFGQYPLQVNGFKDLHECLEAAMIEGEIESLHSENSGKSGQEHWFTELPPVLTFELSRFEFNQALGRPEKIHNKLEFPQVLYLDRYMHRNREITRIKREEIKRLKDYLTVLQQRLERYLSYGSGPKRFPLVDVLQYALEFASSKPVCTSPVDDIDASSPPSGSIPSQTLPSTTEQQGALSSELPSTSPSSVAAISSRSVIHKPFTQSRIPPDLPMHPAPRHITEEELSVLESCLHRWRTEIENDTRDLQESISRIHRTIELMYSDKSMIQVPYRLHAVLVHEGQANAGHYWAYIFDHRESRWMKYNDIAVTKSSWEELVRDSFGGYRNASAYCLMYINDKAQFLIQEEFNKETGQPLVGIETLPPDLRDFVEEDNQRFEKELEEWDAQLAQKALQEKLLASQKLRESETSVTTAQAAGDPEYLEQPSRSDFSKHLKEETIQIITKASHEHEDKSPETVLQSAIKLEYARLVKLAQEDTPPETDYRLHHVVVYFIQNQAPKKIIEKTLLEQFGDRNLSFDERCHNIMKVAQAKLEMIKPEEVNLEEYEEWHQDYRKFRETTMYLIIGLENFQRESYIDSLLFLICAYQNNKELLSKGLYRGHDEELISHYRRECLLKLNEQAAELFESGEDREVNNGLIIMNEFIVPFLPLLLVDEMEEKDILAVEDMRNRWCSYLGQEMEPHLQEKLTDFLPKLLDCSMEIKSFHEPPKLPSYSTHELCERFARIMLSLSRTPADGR
Chain of USP28 (Q96RU2 whole entry): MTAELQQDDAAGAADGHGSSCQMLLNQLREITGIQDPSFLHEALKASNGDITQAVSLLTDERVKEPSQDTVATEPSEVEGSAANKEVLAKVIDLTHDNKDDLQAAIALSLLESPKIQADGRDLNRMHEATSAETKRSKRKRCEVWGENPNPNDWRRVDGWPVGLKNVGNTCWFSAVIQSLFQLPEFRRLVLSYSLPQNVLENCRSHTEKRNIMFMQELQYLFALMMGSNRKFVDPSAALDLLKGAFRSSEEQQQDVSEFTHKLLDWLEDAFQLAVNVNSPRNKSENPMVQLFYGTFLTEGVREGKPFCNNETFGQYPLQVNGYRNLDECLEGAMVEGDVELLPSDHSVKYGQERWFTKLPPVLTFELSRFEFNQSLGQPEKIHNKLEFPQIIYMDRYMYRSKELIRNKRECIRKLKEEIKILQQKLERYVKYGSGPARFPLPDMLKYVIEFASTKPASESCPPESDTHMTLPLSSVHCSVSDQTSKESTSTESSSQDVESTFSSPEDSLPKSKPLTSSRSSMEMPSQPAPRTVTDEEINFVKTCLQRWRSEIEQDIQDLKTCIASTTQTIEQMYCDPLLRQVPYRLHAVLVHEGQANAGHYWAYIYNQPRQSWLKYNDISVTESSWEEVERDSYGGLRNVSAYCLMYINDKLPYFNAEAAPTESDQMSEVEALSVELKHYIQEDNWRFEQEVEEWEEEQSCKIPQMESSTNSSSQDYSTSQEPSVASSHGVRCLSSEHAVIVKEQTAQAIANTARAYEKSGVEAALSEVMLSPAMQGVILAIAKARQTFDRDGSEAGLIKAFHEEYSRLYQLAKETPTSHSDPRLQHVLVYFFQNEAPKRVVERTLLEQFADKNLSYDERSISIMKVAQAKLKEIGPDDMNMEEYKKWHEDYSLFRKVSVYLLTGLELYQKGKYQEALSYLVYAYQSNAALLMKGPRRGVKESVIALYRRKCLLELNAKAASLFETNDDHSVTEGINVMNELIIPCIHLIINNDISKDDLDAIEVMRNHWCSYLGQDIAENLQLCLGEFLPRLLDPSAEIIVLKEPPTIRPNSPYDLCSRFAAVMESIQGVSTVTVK

SMILES	IC50 (USP28) [µM]	IC50 (USP25) [µM]
Cc1ccc2c(N)c(C(=O)NCCc3ccc(N4CCNCC4)c(C4CC4)c3)sc2n1 [Compound I-6]	< 0.2	0.2 to 2
CCc1cc(CCNC(=O)c2sc3nc(C)ccc3c2N)ccc1N1CCNCC1 [Example I-78]	< 0.2	0.2 to 2
CCc1nc2sc(C(=O)NCCc3ccc(N4CCNCC4)cc3)c(N)c2cc1F [Compound I-206]	< 0.2	< 0.2
Cc1cc2c(N)c(C(=O)NCCc3ccc(N4CCNCC4)c(Cl)c3)sc2nc1C [Compound I-31]	2 to 10	2 to 10
Cc1ccc2c(N)c(C(=O)NCCc3ccc(N4CC[C@@H]5NCC[C@@H]54)cc3)sc2n1 (single isomer, unassigned) [Example I-93]	< 0.2	< 0.2
COCCN1CCN(c2ccc(CCNC(=O)c3sc4nc(C)ccc4c3N)cc2)CC1 [Compound I-26]	0.2 to 2	2 to 10
Cc1cc2c(N)c(C(=O)NCCc3ccc(N4CCNCC4)cc3)sc2nc1C [Compound I-61]	0.2 to 2	2 to 10
Cc1ccc2c(N)c(C(=O)NCCc3ccc(N4CC5CCC(C4)N5)cc3Cl)sc2n1 [Compound I-21]	< 0.2	< 0.2
Cc1ccc2c(N)c(C(=O)N[C@H]3C[C@@H](c4ccc(N5CCNCC5)cc4)C3)sc2n1 [Example I-91, cis-3-Amino-6-methyl-N-(3-(4-(piperazin-1-yl)phenyl)cyclobutyl)thieno [2,3-b]pyridine-2-carboxamide]	0.2 to 2	0.2 to 2
C[C@H](CNC(=O)c1sc2ncc(F)cc2c1N)c1cc(F)c(N2CC3CCC(C2)N3)cc1F (single isomer, unassigned) [Example I-101]	2 to 10	2 to 10
Cc1ccc2c(N)c(C(=O)NCCc3ccc(N4CC5CCC(C4)N5)cc3)sc2n1 [Compound I-15]	< 0.2	0.2 to 2
Cc1ccc2c(N)c(C(=O)NC[C@H](C)c3cc(F)c(N4CC5CCC(C4)N5)cc3F)sc2n1 (single isomer, unassigned) [Example I-98]	< 0.2	0.2 to 2
Cc1ccc2c(N)c(C(=O)NCCc3ccc(N4CCNCC4)cc3-c3ccccc3)sc2n1 [Example I-82]	< 0.2	< 0.2
Cc1ccc2c(N)c(C(=O)NCCc3ccc(N4CC[C@H]5NCC[C@H]54)cc3)sc2n1 (single isomer, unassigned) [Example I-94]	0.2 to 2	0.2 to 2
Cc1nc2sc(C(=O)NC[C@@H](C)c3ccc(N4CC5CCC(C4)N5)c(F)c3)c(N)c2cc1F (single isomer, unassigned) [Example I-107]	0.2 to 2	10 to 25
Cc1ccc2c(N)c(C(=O)NC[C@@H](C)c3cc(F)c(N4CC5CCC(C4)N5)cc3F)sc2n1 (single isomer, unassigned) [Example I-97]	0.2 to 2	2 to 10
Nc1c(C(=O)NCCc2ccc(N3CCNCC3)cc2)sc2nc3c(cc12)CCC3O (stereo not drawn) [Example I-223, 3-Amino-7-hydroxy-N-(4-(piperazin-1-yl)phenethyl)-6,7-dihydro-5H-cyclopenta[b]thieno[3,2-e]pyridine-2-carboxamide]	2 to 10	0.2 to 2
Nc1c(C(=O)NCCc2ccc(N3CCNCC3)cc2)sc2nc3c(cc12)CCCC3 [Compound I-30]	2 to 10	10 to 25

SMILES	IC50 (USP28) [µM]	IC50 (USP25) [µM]
COc1cc(C)nc2sc(C(=O)NCCc3ccc(N4CCNCC4)cc3)c(N)c12 [Compound I-24]	2 to 10	10 to 25
CNc1ccc2c(N)c(C(=O)NCCc3ccc(C4CCNCC4)cc3)sc2n1 [Example I-196]	0.2 to 2	0.2 to 2
Cc1ccc2c(N)c(C(=O)NCCc3ccc(C4CCNCC4)c(Cl)c3)sc2n1 [Compound I-205]	< 0.2	0.2 to 2
Cc1ccc2c(N)c(C(=O)NCCc3ccc(N4CCn5ccnc5C4)cc3)sc2n1 [Example I-116, 3-Amino-N-(4-(5,6-dihydroimidazo[1,2-a]pyrazin-7(8H)-yl)phenethyl)-6-methylthieno[2,3-b]pyridine-2-carboxamide]	0.2 to 2	0.2 to 2
Nc1c(C(=O)NCCc2ccc(N3CCNCC3)cc2)sc2nc3c(cc12)CCC3 [Compound I-29]	2 to 10	2 to 10
Nc1c(C(=O)NCCc2ccc(N3CCNCC3)cc2)sc2nc(OC(F)F)ccc12 [Example I-193, 3-Amino-6-(difluoromethoxy)-N-(4-(piperazin-1-yl)phenethyl)thieno[2,3-b]pyridine-2-carboxamide]	< 0.2	0.2 to 2
CCOc1ccc2c(N)c(C(=O)NCCc3ccc(N4CCNCC4)cc3)sc2n1 [Example I-191]	0.2 to 2	2 to 10
Cc1ccc2c(N)c(C(=O)NCCc3ccc4c(c3)C[C@H](C(=O)O)C4)sc2n1 [Example I-176]	0.2 to 2	0.2 to 2
Cc1ccc2c(N)c(C(=O)NCCc3ccc(N4CCNCC4)c(Cl)c3)sc2n1 [Example I-77]	0.2 to 2	0.2 to 2
Cc1ccc2c(N)c(C(=O)NCCc3ccc(N4CC[C@@H](NC(C)C)C4)cc3)sc2n1 [Compound I-201]	0.2 to 2	0.2 to 2
Nc1c(C(=O)NCCc2ccc(N3CCNCC3)cc2)sc2ncc(C(F)F)cc12 [Compound I-27]	2 to 10	10 to 25
Cc1nc2sc(C(=O)NC[C@H](C)c3cc(F)c(N4CCNCC4)cc3F)c(N)c2cc1F [Example I-100]	0.2 to 2	2 to 10
Cc1ccc2c(N)c(C(=O)NC[C@H](C)c3cc(F)c(N4CCNCC4)cc3F)sc2n1 [Example I-208]	0.2 to 2	2 to 10
Cc1cc(C(F)F)nc2sc(C(=O)NCCc3ccc(N4CCNCC4)cc3)c(N)c12 [Compound I-62]	< 0.2	< 0.2
Cc1cc(C(F)(F)F)c2c(N)c(C(=O)NCCc3ccc(N4CCNCC4)c(F)c3)sc2n1 [Compound I-7]	0.2 to 2	< 0.2
Cc1ccc2c(N)c(C(=O)NCCc3ccc(N4CCNCC4)c(O)c3)sc2n1 [Example I-182, 3-amino-N-(3-hydroxy-4-(piperazin-1-yl)phenethyl)-6-methylthieno[2,3-b]pyridine-2-carboxamide]	0.2 to 2	2 to 10
Cc1ccc2c(N)c(C(=O)NCCc3ccc(N4CCNCC4)c(-c4cnn(C5CCOCC5)c4)c3)sc2n1 [Example I-166]	2 to 10	10 to 25
Cc1cc(N)nc2sc(C(=O)NCCc3ccc(N4CCNCC4)cc3)c(N)c12 [Example I-183, 3,6-Diamino-4-methyl-N-(4-(piperazin-1-yl)phenethyl)thieno[2,3-b]pyridine-2-carboxamide]	0.2 to 2	0.2 to 2
